Results reported in ChEMBL document CHEMBL1158136, “Ashwagandhanolide, a bioactive dimeric thiowithanolide isolated from the roots of Withania somnifera” (2006).

How the values were obtained:
[1] = biological target: Prostaglandin G/H synthase 1 (Homo sapiens) (UniProt P23219); test: Inhibition of COX1 at 100 ug/mL
[2] = system: SF-268; test: Cytotoxicity against human SF-268 cells by MTT assay; format: functional
[3] = Cytotoxicity against human HCT 116 cells by MTT assay; format: functional
[4] = system: MCF7; test: Cytotoxicity against human MCF7 cells by MTT assay; format: functional
[5] = system: AGS; test: Cytotoxicity against human AGS cells by MTT assay; format: functional
[6] = system: NCI-H460; test: Cytotoxicity against human NCI-H460 cells by MTT assay; format: functional
[7] = biological target: T1, Prostaglandin G/H synthase 2 (Homo sapiens) (UniProt P35354); test: Inhibition of COX2 at 100 ug/mL
T1 sequence (whole entry): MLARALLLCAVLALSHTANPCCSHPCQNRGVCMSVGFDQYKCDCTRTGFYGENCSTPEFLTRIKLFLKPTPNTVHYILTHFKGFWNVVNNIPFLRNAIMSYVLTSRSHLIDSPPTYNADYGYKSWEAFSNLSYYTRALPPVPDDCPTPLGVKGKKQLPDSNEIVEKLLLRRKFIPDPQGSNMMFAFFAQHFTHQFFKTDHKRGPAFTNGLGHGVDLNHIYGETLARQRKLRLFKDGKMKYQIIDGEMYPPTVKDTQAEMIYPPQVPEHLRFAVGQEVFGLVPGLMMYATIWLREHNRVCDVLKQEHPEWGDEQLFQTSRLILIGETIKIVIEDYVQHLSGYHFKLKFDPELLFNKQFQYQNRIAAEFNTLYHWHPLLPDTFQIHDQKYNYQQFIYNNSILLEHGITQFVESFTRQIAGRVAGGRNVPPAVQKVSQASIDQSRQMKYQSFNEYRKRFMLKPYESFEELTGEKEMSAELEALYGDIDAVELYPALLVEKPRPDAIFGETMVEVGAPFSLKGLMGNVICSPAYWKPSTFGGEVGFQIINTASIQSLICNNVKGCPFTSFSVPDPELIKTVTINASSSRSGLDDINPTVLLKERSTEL

Chain of Prostaglandin G/H synthase 1 (Homo sapiens) (P23219 whole entry): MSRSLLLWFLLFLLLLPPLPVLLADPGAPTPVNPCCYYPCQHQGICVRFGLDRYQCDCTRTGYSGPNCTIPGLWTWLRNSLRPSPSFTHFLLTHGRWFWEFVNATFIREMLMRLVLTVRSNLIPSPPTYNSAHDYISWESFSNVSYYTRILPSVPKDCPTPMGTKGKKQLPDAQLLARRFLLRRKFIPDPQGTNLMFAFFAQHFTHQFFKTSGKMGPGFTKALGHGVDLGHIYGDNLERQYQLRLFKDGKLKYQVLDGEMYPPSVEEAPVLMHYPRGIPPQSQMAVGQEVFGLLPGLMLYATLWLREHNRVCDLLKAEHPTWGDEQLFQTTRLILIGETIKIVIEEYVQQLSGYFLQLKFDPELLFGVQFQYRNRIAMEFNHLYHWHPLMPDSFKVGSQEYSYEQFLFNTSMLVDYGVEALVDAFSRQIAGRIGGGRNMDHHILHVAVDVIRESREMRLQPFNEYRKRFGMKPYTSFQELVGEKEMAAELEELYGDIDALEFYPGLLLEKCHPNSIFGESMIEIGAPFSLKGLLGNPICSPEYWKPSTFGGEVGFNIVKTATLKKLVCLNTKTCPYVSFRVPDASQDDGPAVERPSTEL

inhibition [1]: 65%
inhibition [7]: 60%
SMILES: CC1=C(CO)C(=O)O[C@@H]([C@@H](C)[C@H]2CC[C@H]3[C@@H]4C[C@H](S[C@H]5C[C@H]6[C@@H]7CC[C@H]([C@H](C)[C@H]8CC(C)=C(CO)C(=O)O8)[C@@]7(C)CC[C@@H]6[C@@]6(C)C(=O)C=C[C@H](O)[C@@]56O)[C@]5(O)[C@@H](O)C=CC(=O)[C@]5(C)[C@H]4CC[C@]23C)C1 [ASHWAGANDHANOLIDE]
IG50 [2]: 0.84 µg/mL
IG50 [3]: 1.25 µg/mL
IG50 [4]: 1.45 µg/mL
IG50 [5]: 0.43 µg/mL
IG50 [6]: 1.48 µg/mL
